Values of other authors in article PMC8198792, “Prediction of Anticancer Peptides with High Efficacy and Low Toxicity by Hybrid Model Based on 3D Structure of Peptides” (International Journal of Molecular Sciences, 2021).

Tested on: erythrocytes
Conditions: Hemolytic peptides dataset HD2; label 1 = hemolytic, 0 = non-hemolytic; ref Hemolytik/SATPdb; cited from earlier work
Text: Supplement ijms-22-05630-s001.zip/Hemloytic Peptides(seguence).xlsx, sheet "HD1" | column: Activity || Supplement ijms-22-05630-s001.zip/Hemloytic Peptides(seguence).xlsx, sheet "HD2" | column: Activity || Supplement ijms-22-05630-s001.zip/Hemloytic Peptides(seguence).xlsx, sheet "HD3" | column: Activity

Substance | Activity
GFLSILKKVLKVMAHMK [satpdb11385] | 1
GIGKFLHSAKKFGKAFVGEIMNS [satpdb11151] | 1
GIIKKI [satpdb22209] | 0
ILGKLLSTAAkLLSNL [satpdb12605] | 1
KKlFKKILkYL [satpdb19353] | 0
KLLLK [compound 3825] | 1
KWKFKKIPKFLHLAKKF [satpdb23702] | 0

Same assay, conditions: cited from earlier work

Substance | Activity | Activity (dataset HD1, hemolytic 1 / non-hemolytic 0)
FKTWKRPPFQTSCSGIIKE [satpdb21275] | 0 | 0
FLGPIIKIATGILPTAICKILKKC [satpdb24144] | 0 | 0
FLPLIGRVLSGIL [satpdb12693] | 1 | –
FLPLLLAGLPKLLCLFFKKC [satpdb14955] | 1 | 1
FLPLVLGALSGILPKILGK [satpdb12081] | 1 | 1
FLSLIPHAINAVSAIAKHF [satpdb17651] | 0 | –
FLSLIPHAINAVSAIAKHN [satpdb11891] | 1 | –
GFKLKGKAKISCLPNGQWSNFPPKCIRECAMVSS [satpdb25464] | 0 | 0
GFLGPLLKLGLKGVAKVIPHLIPSRQQ [satpdb16038] | 1 | 1
GFMDTAKNVAKNVAVTLLDNLKCKITKAC [satpdb14159] | 1 | 1
GFWKKVGSAAWGGVKAAAKGAAVGGLNALAKHIQ [satpdb28387] | 0 | 0
GGLRSLGRKILRAWKKYGPIIVPIIRIG [satpdb22390] | 0 | 0
GIHDILKYGKPS [satpdb19051] | 0 | 0
GIIKKIIKKI [satpdb26556] | 0 | –
GILDTLKQFAKGVGKDLVKGAAQGVLSTVSCKLAKTC [satpdb16042] | 0 | 0
GKLNLFLSRLEILKLFVGAL [satpdb18533] | 0 | 0
GLFDIIKKIAESFKFSEAIKKIIDFLG [satpdb13437] | 1 | 1
GLLSGTSVRGSI [satpdb16160] | 1 | 1
GLWSKIKTAGKSVAKAAAKAAVKAVTNAV [satpdb14676] | 1 | 1
GLWSTIKNVGKEAAIAAGKAALGAL [satpdb11818] | 0 | –
GMWSKIKNAGKAAKAAAKAAGKAALGAVSEAM [satpdb14564] | 0 | 0
GRDYRTSLTIVQKLKKMVD [satpdb22468] | 0 | 0

Substance | Activity | Activity (dataset HD1, hemolytic 1 / non-hemolytic 0)
GRRRRSVQWCA [satpdb24172] | 0 | 0
GSKKPVPIIYANRRTGKAQRM [satpdb20538] | 0 | 0
GSKKPVPIIYCNRRAATGKCQRM [satpdb20782] | 0 | 0
GWANTLKNVAGGLCKITGAA [satpdb14607] | 1 | 1
GWGSFFKKAAAVGKAVGKAALTAYL [satpdb15739] | 1 | 1
GWGSFFKKAAHVGKHVGKA [satpdb20663] | 0 | –
GWGSFFKKAAHVGKHVGKAALT [satpdb28107] | 0 | –
GWGSIFKHGRHAAKHIGHAAVNHYL [satpdb11681] | 1 | –
GWKKWLRKGAKHLGQAAIK [satpdb12620] | 1 | –
GWKSVFRKAKKVGKTVGGLALDHYL [satpdb12845] | 1 | –
GWRKWIKKATHVGKHIGKAALDAYI [satpdb10530] | 1 | –
HALWMTLLKKVLKAAAKAALNAVLVGANA [satpdb12263] | 1 | 1
HVDKKVADKVLLLKQLRIMRLLTRL [satpdb19920] | 0 | 0
HYRIKPTFRRLKWKYKGKFW [satpdb11796] | 1 | 1
IKIPPIVKDTLKKVAKGVLSTIAGALST [satpdb27001] | 0 | 0
ILGKLLSTAAKLLSKL [satpdb12927] | 1 | –
ILGKLLSTAWGLLSNL [satpdb11718] | 1 | –
ILPLKLPWLPLRR [satpdb11800] | 0 | –
ILPWKLPLLPLRR [satpdb15320] | 0 | –
IPHAVKAISDLI [satpdb15419] | 0 | –
KAACAAKCLWR [satpdb24099] | 0 | –
KAVAAKKSPKKAKKPAT [satpdb19355] | 0 | 0

Substance | Activity | Activity (dataset HD1, hemolytic 1 / non-hemolytic 0)
KIAEKFSGTRRG [satpdb24068] | 0 | 0
KKAAHVGKHVGKAALTHYL [satpdb21325] | 0 | –
KKAFAAAAAFAAWAAFAKKKK [satpdb16931] | 0 | –
KKFLHSAKKWLKAFVKLKKNW [satpdb15438] | 1 | 1
KKKKKKAAFAAFAAFAA [satpdb24627] | 0 | –
KKKKKKAAFAAWAAFAA [satpdb19804] | 0 | –
KKKKKKAAFALWAAFAA [compound 1147] | 1 | –
KKKKKKAAFALWLAFAA [compound 1148] | 1 | –
KKKKKKAAFALWLAFLA [compound 1154] | 1 | –
KKKKKKAAFLAWALFAA [compound 1149] | 1 | –
KKKKKKAAWAAWAAWAA [satpdb17717] | 0 | –
KKKKKKALFAAWAAFLA [compound 1151] | 1 | –
KKKKKKALFALWLAFAA [compound 1153] | 1 | –
KKKKKKALFALWLAFLA [compound 1155] | 1 | –
KKKKKKKKKKGIGKFLHSAKKFGKAFVGEIMNS [satpdb13667] | 0 | 0
KKKKKKLLFAAWAAFAA [compound 1152] | 1 | –
KKLFKKILkYL [satpdb24648] | 0 | –
KKLKKLKKKWKKLKKKLK [satpdb24596] | 0 | 0
KKLKKLLKKWKKLLKKLK [satpdb24868] | 0 | 0
KKLLPIVANLLKSLL [satpdb19176] | 0 | 0
KKVVFKVKFK [satpdb13312] | 0 | –
KKWLKKWLK [satpdb18253] | 0 | –

Substance | Activity | Activity (dataset HD1, hemolytic 1 / non-hemolytic 0)
KLLKKPLKLKL [satpdb17171] | 0 | –
KLLKLLLKLLKLLLKLLLKLLK [compound 3828] | 1 | –
KLLKLLLKLLLKLLK [compound 3689] | 1 | –
KLLLKLLKLLLKLLLKLLK [compound 3687] | 1 | –
KLLLKLLLK [compound 3826] | 1 | –
KNLRRITRKIIHIIKKYG [satpdb15247] | 1 | 1
KPLLKKLLKKL [satpdb28330] | 0 | –
KRFKQDGGWSHWSPWSS [satpdb23837] | 0 | 0
KRLFKKLLFSLRKY [satpdb21867] | 0 | 0
KRLFRRLLFSMKKY [satpdb20261] | 0 | 0
KRLFRRWQWRMKKY [satpdb17153] | 0 | 0
KSLRRVWRSWR [satpdb26460] | 0 | –
KSLVRRWRSRW [satpdb18185] | 0 | –
KVAKQEKKKKKTGRAKRR [satpdb15637] | 1 | 1
KWKKLLKKPLKLKL [satpdb22005] | 0 | –
KWKKLLKKPLLKKLLKKL [satpdb12329] | 0 | –
KWKKLPKKLLKLL [satpdb21914] | 0 | –
KWKLFKKIGIGKFLHSAKKF [compound 2023] | 0 | –
KWKLFKKIGPGKFLHSAKKF [satpdb18846] | 0 | –
KWKLFKKIKFLHSAKKF [satpdb22653] | 0 | –
KWKLFKKIPHLAKKF [satpdb28955] | 0 | –

Same assay, conditions: hemolytic peptides dataset HD3; 1 = hemolytic (positive set), 0 = non-hemolytic (negative set); labels taken from databases; ref Hemolytik/SATPdb; cited from earlier work

Substance | Activity
FSPQMLQDIIEAATAIL [satpdb19301] | 0
GCRFCCNCCPNMSGCGVCCRF [satpdb21740] | 0
GFLSILKKVLKVMAHMK [satpdb11385] | 1
GIGKFLHSAKKFGKAFVGEIMNS [satpdb11151] | 1
GIIKKI [satpdb22209] | 0
GTPCGESCVYIPCISGVIGCSCTDKVCYLN [satpdb10399] | 1
GVPCGESCVFIPCITGVIGCSCSSNVCYLN [satpdb12922] | 1
ILGKLLSTAAkLLSNL [satpdb12605] | 1
KKlFKKILkYL [satpdb19353] | 0
KLLLK [compound 3825] | 1
KNWKGIAGMAKKLLGKNWELMKK [satpdb11666] | 1
KWKFKKIPKFLHLAKKF [satpdb23702] | 0

Same assay, conditions: natural hemolytic peptide dataset HD1, label collected from databases; ref Hemolytik [49], SATPdb [34]; cited from earlier work

Substance | Activity (dataset HD1, hemolytic 1 / non-hemolytic 0)
FSPQMLQDIIEAATAIL [satpdb19301] | 0
GCRFCCNCCPNMSGCGVCCRF [satpdb21740] | 0
GTPCGESCVYIPCISGVIGCSCTDKVCYLN [satpdb10399] | 1
GVPCGESCVFIPCITGVIGCSCSSNVCYLN [satpdb12922] | 1
KNWKGIAGMAKKLLGKNWELMKK [satpdb11666] | 1
